Results published in patent publication US10758522B2, “Small molecule analogs of the nemo binding peptide” (THE SCRIPPS RESEARCH INSTITUTE, priority 2015, dated 2020).
“Also recorded” adds a separate entry of the source.

Tests used:
mdx mice = experiment: Chronic treatment of mdx mice (Duchenne muscular dystrophy model); format: in vivo, mouse; conditions: for tibialis anterior muscle pathology (H&E): SR compounds 30 mg/kg, 8K-NBD 10 mg/kg
Text: Mdx mice develop normally at birth, and then undergo a massive myonecrosis starting at three weeks. Treatment of mdx mice with IKK/NF-kB inhibitors effectively reduces inflammation, block necrosis and increase muscle regeneration. Mdx mice were chronically treated with vehicle, SR12343, SR12460 or 8K-NBD starting from day 21, 3 times/week for 4 weeks. […] To determine if SR12343 and SR12460 improve muscle pathology, tibialis anterior (TA) muscle was stained with hematoxylin and eosin (H&E) to assess inflammatory infiltration, necrosis, central nucleation and fibrosis. […] Fiber size in centrally nucleated and non-centrally nucleated myofibers was also smaller in mice treated with SR12343 and 8K-NBD, indicating active reconstruction of myofiber during the regenerative phase.
To determine muscle strength post-treatment, grip strength test on forelimbs was performed 2 weeks and 4 weeks post-treatment.
HEK293 cells were grown in Dulbecco's Modification of Eagles Medium (with 4.5 g/L glucose and L-glutamine), supplemented with 10% fetal bovine serum, penicillin and streptomycin. Raw264.7 cells were cultured in RPMI-1640 media containing 10% heat-inactivated fetal bovine serum, penicillin and streptomycin. C57BL/10ScSn-Dmd^mdx/J and female C57BL/6 mice were purchased from the Jackson Laboratory. Mice were housed in the animal facilities of Scripps Fla. under constant temperature and humidity. Animal protocols used in this study were approved by Scripps Fla. Institutional Animal Care and Use Committees. Three week-old sex-matched mdx mice were dosed with SR12343 (30 mg/kg), […] (30 mg/kg), 8K-NBD peptide (10 mg/kg) or vehicle by intraperitoneal (i.p.) injection 3 times per week for 4 weeks. Mice were sacrificed at 7 weeks of age by carbon dioxide inhalation and tibialis anterior was collected for histological analysis.
Seven week-old treated or untreated mdx mice were measured for forelimb grip strength using a digital grip strength meter paired with a metal grid (Bioseb). Mice were allowed to grip the metal grid tightly and readings were obtained by gently pulling the tail backward until release. Five sequential measurements were performed and the average force was calculated.
Tissues fixed in 10% neutral buffered formalin (NBF) overnight were imbedded in paraffin. Tissue was sectioned at […] using a microtome. H&E staining was conducted following a standard protocol (REF).

IKKβ-NEMO interaction = experiment: Immunoprecipitation of NEMO and IKKβ immunoblot in Raw 264.7 macrophages and HEK293 cells; format: cell-based; conditions: Raw 264.7 macrophages / HEK293; mimetics 100 μM, 8K-NBD 400 μM
Description: The NBD mimetics reduce the interaction between IKKg (NEMO) and IKKß. The indicated concentrations of the drugs were added to HEK 293 or Raw 264.7 cells and cell extracts prepared 30 minutes later. Following immunoprecipitation (IP) of NEMO, the Western was probed for IKKß.
After treatment with the mimetics or NBD peptide, NEMO was immunoprecipitated by an anti-NEMO antibody and IKKβ was immunoblotted to determine the binding of IKKβ to NEMO.
HEK293 or Raw264.7 cells were seeded at 1×10^6 cells/well in 6-well plates and treated with vehicle, small molecule or NBD peptide for indicated time. Cells were lysed in NP-40 lysis buffer supplemented with 1× protease inhibitor cocktails (sigma). Protein was immunoprecipitated by incubating 150 μg of lysate with 1 μg of anti-NEMO antibody (Santa Cruz) on a rotating shaker at 4° C. for 4 hrs, followed by incubation with 20 ul of Protein A agarose beads (ThermoFisher) for 1 hr. Beads were washed in NP40 buffer 3 times and PBS once. Protein was then denatured in SDS-sample buffer and resolved by MINI-PROTEAN TGX 4-15% SDS-PAGE. Anti-IKKβ (1:1000 CST) was used to assess binding of IKKβ to NEMO and anti-NEMO (1:1000 CST) or IgG were used to as a loading control.

NF-κB target genes [1] = experiment: qRT-PCR of NF-κB target genes in LPS-stimulated Raw 264.7 cells; format: cell-based, mouse; conditions: Raw 264.7, 1 ug/ml LPS 2 hr; mimetics 50 μM, IKKi VII 2 μM, 8K-NBD 400 μM
Description: Effect of the NBD mimetics on expression of NF-kB regulated genes in the Raw mouse macrophage cell line. Treatment of the Raw cells with the indicated drugs prior to addition of LPS reduced NF-kB-mediated gene expression as measured by RT-PCR.
To determine whether the inhibitory effect of the mimetics is TNF-α-dependent, LPS-mediated NF-κB activation via TLR4 was examined to determine a broader inhibitory effect of the novel NBD mimetics. NF-κB was stimulated in Raw 264.7 by 1 ug/ml of LPS for 2 hr and genes transcriptionally regulated by NF-κB were determined by qRT-PCR analysis. Both an IKK active site inhibitor IKKi VII (2 μM) and the 8K-NBD peptide (400 μM) were included as positive controls and the expression of COX2, IL-6, IL-1β, TNF-α, IκBα and iNOS were assessed.
Raw 264.7 cells were treated with a 50 μM solution of the SR compound for 30 minutes, and then the mRNA was harvested 2 hours after addition of 1 μg/mL LPS.
(§1) Snap frozen tissues were preserved in RNAlater RNA stabilization solution (ThermoFisher) before processed. Total RNA was extracted from cells or tissues using TRIZOL reagent (Life Technologies) and 1500 ng of messenger RNA (mRNA) was subjected to synthesize complementary DNA (cDNA) using SuperScript VILO cDNA synthesis kit. qRT-PCR was performed in a StepOnePlus Real-Time PCR system using Platinum SYBR Green qPCR SuperMix-UDG (ThermoFisher). Target gene expression was calculated using the comparative CT method (ΔΔCT) and normalized to an internal control gene Actb (β-actin). Primers used are as follows: Ptgs2 (COX-2) forward: […]; Ptgs2 (COX-2) reverse: […]; Nfkbia (IκBα) forward: […]; Nfkbia (IκBα) reverse: […]; Il1b (IL-1β) forward: […]; Il1b (IL-1β) reverse: […]; Nos2 (iNOS) forward: […]; Nos2 (iNOS) reverse: […]; Tnf (TNF) forward: […]; Tnf (TNF) reverse: […]; Il6 (IL-6) forward: […]; Il6 (IL-6) reverse: […]. Actb (β-actin) forward: […]; Actb (β-actin) reverse: […];

NF-κB target genes [2] = experiment: LPS-induced systemic endotoxemia / acute lung inflammation, qRT-PCR of NF-κB target genes; format: in vivo, mice; conditions: 10 mg/kg
Description: SR12343 and SR12460 initially were tested in an acute model of LPS-induced systemic endotoxemia to determine their NF-κB inhibitory effects in vivo. C57BL/6J mice were pretreated with vehicle control, 8K-NBD peptide or NBD mimetics at 10 mg/kg for 30 min, followed by LPS induction at 10 mg/kg. Lung and liver were harvested 2-4 hr post-treatment for qRT-PCR analysis of NF-κB target genes.
LPS (strain O111:B4) was prepared in PBS at a sub-lethal dose of 10 mg/kg. 8-10 weeks old female WT mice (20-30 g) were dosed i.p. with vehicle, NBD peptide (10 mg/kg) or small molecules (10 mg/kg) for 30 min and followed by i.p. injection of saline (1 ml/kg) or LPS (10 mg/kg). Mice were euthanized 2-4 hr post-treatment and lung was collected for further analysis.
as §1

## O=C(CNc1ccc(Cl)cn1)NCCc1cccc(Br)c1 [SR12343, N-(3-bromophenethyl)-2-((5-chloropyridin-2-yl)amino)acetamide]
Mdx mice; 2 weeks post-treatment
  forelimb grip strength: significantly improved forelimb strength after 2 weeks of treatment
Mdx mice; ip 3 times/week for 4 weeks
  expression of eMyHC and Pax 7 in TA muscle (qRT-PCR): increasing expression of eMyHC as well as Pax 7
  fiber size in centrally nucleated and non-centrally nucleated myofibers: smaller
  tibialis anterior muscle pathology (H&E): most significant pathological improvement
IKKβ-NEMO interaction
  disruption of IKKβ-NEMO interaction (NEMO IP, IKKβ blot): strongest activity; also recorded: disruption of the association between NEMO and IKK-β
NF-κB target genes [1]
  transcription of NF-κB target genes (COX2, IL-6, IL-1β, TNF-α, IκBα, iNOS): significant inhibition on COX2, IL-6 and iNOS expression
NF-κB target genes [2]; 30 min before LPS 10 mg/kg, 2-4 hr
  NF-κB target gene expression in lung (iNOS, IκBα, COX2, IL-6): downregulate NF-κB transcriptional activity significantly in lung
NF-κB target genes [2]; LPS 10 mg/kg
  NF-κB target gene expression in liver: inhibiting only COX2 expression significantly
  TNF-α expression in lung: unchanged

## O=C(CNCCc1cc(F)cc(F)c1)Nc1ccc(Cl)cn1 [SR12460, N-(5-chloropyridin-2-yl)-2-((3,5-difluorophenethyl)amino)acetamide]
Mdx mice; ip 3 times/week for 4 weeks
  expression of eMyHC and Pax 7 in TA muscle (qRT-PCR): increased eMyHC expression, but to a lower extent compared to SR12343
  tibialis anterior muscle pathology (H&E): partly improved muscle pathology
IKKβ-NEMO interaction
  disruption of IKKβ-NEMO interaction (NEMO IP, IKKβ blot): disruption of the association between NEMO and IKK-β
NF-κB target genes [1]
  transcription of NF-κB target genes (COX2, IL-6, IL-1β, TNF-α, IκBα, iNOS): significantly downregulate the transcription of all NF-κB target genes tested
NF-κB target genes [2]; LPS 10 mg/kg
  inhibition of NF-κB/IKK in liver and lung: less potent compared to SR12343

## Nc1ncccc1C(=O)OCC(=O)Nc1ccc(Cl)cc1F [NBDA-1, 2-((4-chloro-2-fluorophenyl)amino)-2-oxoethyl 2-aminonicotinate]
Mdx mice; chronic treatment with the ZINC compounds
  therapeutic benefit of chronic treatment of mdx mice: showed no therapeutic benefit
